The values below come from patent publication US20100222340A1, “SUBSTITUTED PYRIDO [1,2-a] ISOQUINOLINE DERIVATIVES” (priority 2004, published 2010).

The structures appear in SMILES notation. Counter-ions that a name gives are not always drawn.

In the assay the target is T1, human DPP-IV (Homo sapiens, UniProt P27487).
T1 construct: made in house; host or cells: Pichia pastoris
Description: DPP-IV activity assay (fluorogenic / colorimetric), IC50 determination. The class given is biochemical. As to conditions: natural human DPP-IV from human plasma pool or recombinant human DPP-IV; 37° C., pH 7.8. The protocol: Activity of DPP-IV inhibitors are tested with natural human DPP-IV derived from a human plasma pool or with recombinant human DPP-IV. Human citrate plasma from different donors is pooled, filtered through a 0.2 micron membrane under sterile conditions and aliquots of 1 ml are shock frozen and stored at −120° C. until used. In the colorimetric DPP-IV assay 5 to 10 μl human plasma and in the fluorometric assay 1.0 μl of human plasma in a total assay volume of 100 μl is used as an enzyme source. The cDNA of the human DPP-IV sequence of amino acid 31- to 766, restricted for the N-terminus and the transmembrane domain, is cloned into Pichia pastoris. Human DPP-IV is expressed and purified from the culture medium using conventional column chromatography including size exclusion and anion and cation chromatography. The purity of the final enzyme preparation of Coomassie blue SDS-PAGE is >95%. In the colorimetric DPP-IV assay 20 ng rec.-h DPP-IV and in the fluorometric assay 2 ng rec-h DPP-IV in a total assay volume of 100 μl is used as an enzyme source.
In the fluorogenic assay Ala-Pro-7-amido-4-trifluoromethylcoumarin (Calbiochem No 125510) is used as a substrate. A 20 mM stock solution in 10% DMF/H2O is stored at −20° C. until use. […]
Fluorescence is detected in a Perkin Elmer Luminescence Spectrometer LS 50B at an excitation wavelength of 400 nm and an emission wavelength of 505 nm continuously every 15 seconds for 10 to 30 minutes. Initial rate constants are calculated by best fit linear regression. The absorption of pNA liberated from the colorimetric substrate is detected in a Packard SpectraCount at 405 nm continuously every 2 minutes for 30 to 120 minutes. Initial rate constants are calculated by best fit linear regression. […]
IC50 determinations of test compounds are calculated by non-linear best fit regression of the DPP-IV inhibition of at least 5 different compound concentrations. Kinetic parameters of the enzyme reaction are calculated at least 5 different substrate concentrations and at least 5 different test compound concentrations.

T1 sequence (P27487 31-766): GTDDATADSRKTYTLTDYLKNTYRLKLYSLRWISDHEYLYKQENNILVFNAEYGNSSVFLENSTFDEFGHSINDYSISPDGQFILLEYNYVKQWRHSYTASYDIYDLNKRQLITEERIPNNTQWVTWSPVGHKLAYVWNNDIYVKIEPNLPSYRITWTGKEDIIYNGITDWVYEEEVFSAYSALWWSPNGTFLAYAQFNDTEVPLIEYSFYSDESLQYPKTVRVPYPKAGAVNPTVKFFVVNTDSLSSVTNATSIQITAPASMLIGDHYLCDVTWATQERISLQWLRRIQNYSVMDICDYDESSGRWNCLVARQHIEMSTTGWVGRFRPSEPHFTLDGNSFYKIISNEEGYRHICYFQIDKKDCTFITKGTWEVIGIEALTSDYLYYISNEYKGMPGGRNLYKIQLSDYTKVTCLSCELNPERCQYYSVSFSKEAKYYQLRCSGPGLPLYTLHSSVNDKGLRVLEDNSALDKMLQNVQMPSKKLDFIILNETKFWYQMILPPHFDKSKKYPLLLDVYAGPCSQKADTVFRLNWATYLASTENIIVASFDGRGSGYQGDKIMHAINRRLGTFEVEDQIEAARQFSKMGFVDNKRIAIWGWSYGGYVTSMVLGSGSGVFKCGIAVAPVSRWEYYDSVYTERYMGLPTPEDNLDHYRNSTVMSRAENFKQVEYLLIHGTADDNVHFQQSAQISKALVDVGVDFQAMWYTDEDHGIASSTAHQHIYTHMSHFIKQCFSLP

By IC50 is commonly meant the concentration at which inhibition is half-maximal. For the compound `COc1cc2c(cc1OCC(N)=O)CCN1C[C@H](c3cc(C)ccc3C)[C@@H](N)C[C@@H]21` (racemic) [Example 8, (2S,3S,11bS)- and (2R,3R,11bR)-2-[2-Amino-3-(2,5-dimethyl-phenyl)-10-methoxy-1,3,4,6,7,11b-hexahydro-2H-pyrido[2,1-a]isoquinolin-9-yloxy]-acetamide, hydrochloride], the IC50 is 0.1 nM.
Turning to `COc1cc2c(cc1OCC(=O)Nc1nn[nH]n1)CCN1C[C@H](c3cc(C)ccn3)[C@@H](N)C[C@@H]21` (racemic) [Example 13, (2S,3S,11bS)- and (2R,3R,11bR)-2-[2-Amino-10-methoxy-3-(4-methyl-pyridin-2-yl)-1,3,4,6,7,11b-hexahydro-2H-pyrido[2,1-a]isoquinolin-9-yloxy]-N-(2H-tetrazol-5-yl)-acetamide hydrochloride], the IC50 turned out to be 1.1 nM.
As to `COc1ccc2c(c1OCC(=O)N(C)C)CCN1C[C@H](c3cccc(C)c3)[C@@H](N)C[C@@H]21` (racemic) [Example 48, rac-2-((2S,3S,11bS)-2-Amino-9-methoxy-3-m-tolyl-1,3,4,6,7,11b-hexahydro-2H-pyrido[2,1-a]isoquinolin-8-yloxy)-N,N-dimethyl-acetamide], the IC50 is 0.3 nM.
